Laboratory results as given in patent US20190365776A1, “THERAPEUTIC AGENT FOR OCULAR FUNDUS DISEASE” (KYUSHU UNIVERSITY, NATIONAL UNIVERSITY CORPORATION, priority 2013, published 2019).

What was measured:
[1] = test system: mice OIR (Oxygen-Induced Retinopathy) model; assay: Mice OIR model, fluorescein fundus angiography; assay type: in vivo, C57BL/6JJcl mice; settings: 0.8% solution, ocular instillation three times a day, day 17 after birth
Excerpt: C57BL/6JJcl mice born on the same day were reared in a 75%-oxygen environment from day 7 after birth, and were then transferred to a normal indoor environment on day 12 after birth to start administration by ocular instillation. Test groups were a saline instillation group (control), a 0.4% compound 1 solution instillation group, a 0.8% compound 1 solution instillation group, and a 0.4% fasudil solution instillation group, and saline, the compound 1 solution, or the fasudil solution was administered by ocular instillation three times a day. On day 17 after birth, ischemic retinal areas (non-perfused areas) and neovascular areas were quantified for evaluation by flat-mounting or fluorescein fundus angiography. More specifically, 1 g/kg of pentobarbital (Nembutal) was administered intraperitoneally for euthanasia under deep anesthesia, and then both eyeballs were excised and fixed with 4% paraformaldehyde (PFA) at 37° C. for 1 hour, and the corneal limbus was circumferentially incised to remove the cornea and iris from the eyeball. […] Then, the image of the flat-mounted retina was taken with a fluorescence microscope (BZ-9000, KEYENCE Corp, Osaka, Japan), and the proportion of the non-perfused area to the entire retina and the proportion of the neovascular area to the entire retina were calculated by the following formulas in NIH image J software. […]

[2] = test system: b-END3 (bEND.3) mouse brain microvascular endothelial cells; assay: Tight junction test: Claudin-5 immunostaining in b-END3 cells; assay type: cell-based; settings: pretreatment 3 μM or 30 μM, 3 hours; VEGF 25 ng/mL or IL-6 10 ng/mL, 24 hours
Method: (§1) According to a conventional method, b-END3 (bEND.3: ATCC CRL-2299™) cells, which are mouse brain microvascular endothelial cells, were subcultured in 3.5 cm dishes (9×10^5 cells/dish), and a test was started from day 6 after subculture. […]
(§2) The cells after the test were subjected to immunostaining according to the following procedure to evaluate the expression of Claudin-5 or F-Actin. […] Then, a cover glass-sized cell sample was prepared by trimming with a cotton swab, enclosed with a Dako pen, blocked with 10% normal goat serum (10% normal goat serum ready-to-use (Invitrogen)) (30 min, ordinary temperature), and allowed to stand at 4° C. overnight. […]

[3] = test system: b-END3 (bEND.3) mouse brain microvascular endothelial cells; assay: Tight junction test: F-Actin immunostaining in b-END3 cells; assay type: cell-based; settings: pretreatment 3 μM or 30 μM, 3 hours; VEGF 25 ng/mL or IL-6 10 ng/mL, 24 hours
Method: as §1, §2

In the case of `C[C@H]1CNCCCN1S(=O)(=O)c1cccc2cncc(F)c12` [compound 1, (S)-(−)-1-(4-fluoro-5-isoquinolinesulfonyl)-2-methyl-1,4-homopiperazine], the “relative value of the neovascular area (saline instillation group = 100%)” value [1] is reported as 41.6%, the “Claudin-5 expression decreased by VEGF stimulation or IL-6 stimulation” value [2] is reported as “improvement in Claudin-5 expression” and the “F-Actin polymerization caused by VEGF stimulation or IL-6 stimulation” value [3] is reported as “suppression of F-Actin polymerization”.
